Key:
human P2X2 receptors = target: T1, human P2X2 receptors (Homo sapiens, UniProt Q9UBL9); experiment: Whole-cell patch-clamp concentration-activation, HEK293 cells stably expressing hP2X2; assay type: cell-based
T1 construct: expressed in transfected cells
T1 sequence (Q9UBL9 1-404 isoform Q9UBL9-2): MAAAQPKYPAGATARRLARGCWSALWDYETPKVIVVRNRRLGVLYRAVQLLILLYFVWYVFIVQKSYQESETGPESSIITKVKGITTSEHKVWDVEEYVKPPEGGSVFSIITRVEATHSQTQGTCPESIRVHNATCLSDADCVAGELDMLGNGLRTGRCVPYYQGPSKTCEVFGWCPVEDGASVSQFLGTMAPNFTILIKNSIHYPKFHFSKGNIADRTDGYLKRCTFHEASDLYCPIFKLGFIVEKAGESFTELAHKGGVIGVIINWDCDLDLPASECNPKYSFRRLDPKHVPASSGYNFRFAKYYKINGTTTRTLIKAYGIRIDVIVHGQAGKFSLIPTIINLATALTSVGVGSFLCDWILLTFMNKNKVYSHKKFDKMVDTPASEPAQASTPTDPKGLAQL
Procedure: (§1) Human P2X receptors were expressed from HEK293 cell lines containing an inducible promoter system (Flp-In-T-REx 293, Invitrogen, Waltham, MA, USA). The used cell lines were: hP2X2 B (RRID: AC line CVCL_D6U1), hP2X3 (RRID: AC line CVCL_D6U3), and hP2X2/3 (RRID: AC line CVCL_D6U2). The cells were cultured in MEM supplemented with non-essential amino acids (Gibco, Waltham, MA, USA), 10% FCS, and antibiotics, according to the manufacturer’s instructions. For stable cell lines, Flp-In-T-REx 293 cells were transfected using the calcium phosphate method with a mixture of plasmids (0.3 µg pcDNA5/FRT/TO P2X gene and 1.5 µg pOG44) and selected for hygromycin resistance. The cells were seeded on glass coverslips for electrophysiological measurements and used 24–48 h after tetracycline induction ([…]).
(§2) Membrane currents were recorded with a standard patch-clamp technique in the whole-cell configuration. The patch pipettes were pulled from borosilicate glass (ID 1.0 mm, OD 2.0 mm; VITROCOM, Mountain Lakes, NJ, USA) using a micropipette puller (P-97, Sutter Instrument, Novato, CA, USA). The pipettes were filled with intracellular solution containing (mM) 142 NaCl, 5 BAPTA, 5 EGTA, and 10 HEPES at pH 7.4. The pipette resistance was from 2.0 to 6.0 MΩ. The bath solution contained (mM) 142 NaCl, 10 EGTA, 10 HEPES, and 10 glucose at pH 7.4. To increase the speed of recovery from the hP2X3 receptors, we additionally used a bath solution containing (mM) 142 NaCl, 10 HEPES, 10 glucose, 2 CaCl2, and 1 MgCl2. The cells were lifted for recording from the chamber bottom by the patch pipette and positioned in front of the outlet of the application pipette.
(§3) Solutions switches were carried out with the application pipette that had three barrels (inner diameter ~600 µm, Warner Instruments) controlled by a step motor (SF-77B, Warner Instruments). The speed of the laminar solution flow out of the barrels was estimated to be 2–5 cm/s. One barrel contained a control solution and another was connected to a solution selector (Vici Valco Instruments), which allowed us to apply different test solutions by exchanging the solution during the interval (60 sec for P2X2 and P2X2/3 receptors, 180 s for P2X3 receptors) of applying the control solution. Cells expressing hP2X3 were washed with 3 Units/mL apyrase for 30 min to remove ATP. To ensure the comparability of the data points between each application, we rinsed hP2X3 with the following solution for 3 min after each ATP application (mM): 142 NaCl, 10 HEPES, 10 glucose, 2 CaCl2, and 1 MgCl2 at pH 7.4. After sufficient recovery, we switched to the bath solution for 10 s and then to the solution of interest. The speed of the switch around a whole cell was estimated to be below 10 ms by switching between different salt solutions.
(§4) The saturation of activation was determined with ATP at 100 µM. The currents were recorded with a HEKA EPC 10 amplifier in combination with the patchmaster software. The sampling rate was 10 kHz and the recordings were on-line filtered at 2.9 kHz using a four-pole Bessel filter. The currents were recorded at a constant holding potential of −50 mV and the series resistance was compensated with the patchmaster software up to 80%.
(§5) The concentration–activation relationships from whole-cell measurements in the HEK293 cells were obtained from the maximum currents during ATP application. These current amplitudes were normalised with respect to the current at saturating ATP (100 µM) and the resulting data points were fitted I/ImaxATP = Amp/(1 + (EC50/[X])^h) (1) with the Origin 2019® software using a non-linear curve fitting routine. I is the actual current amplitude and ImaxATP is the maximum current amplitude at saturating ATP. The amplitude Amp is the efficacy of the respective ligands. EC50 is the ligand concentration generating the half-maximum current and h is the respective Hill coefficient. [X] is the actual concentration of ATP to be tested. […]

human P2X2/3 receptors = target: T2, human P2X2/3 receptors (Homo sapiens, UniProt P56373+Q9UBL9); experiment: Whole-cell patch-clamp concentration-activation, HEK293 cells stably expressing hP2X2/3; assay type: cell-based; details: for Hill: hP2X2/3, Hill coefficient of concentration-activation fit; for Effect (Fold in ATP Efficacy): hP2X2/3, relative to current at 100 µM ATP; for EC50: hP2X2/3, whole-cell, -50 mV, divalent-cation-free bath with 10 mM EGTA, normalised to 100 µM ATP
T2 construct: expressed in transfected cells
T2 sequence (Q9UBL9 1-404 isoform Q9UBL9-2): T1 sequence (Q9UBL9 1-404 isoform Q9UBL9-2)
T2 sequence (P56373 1-397): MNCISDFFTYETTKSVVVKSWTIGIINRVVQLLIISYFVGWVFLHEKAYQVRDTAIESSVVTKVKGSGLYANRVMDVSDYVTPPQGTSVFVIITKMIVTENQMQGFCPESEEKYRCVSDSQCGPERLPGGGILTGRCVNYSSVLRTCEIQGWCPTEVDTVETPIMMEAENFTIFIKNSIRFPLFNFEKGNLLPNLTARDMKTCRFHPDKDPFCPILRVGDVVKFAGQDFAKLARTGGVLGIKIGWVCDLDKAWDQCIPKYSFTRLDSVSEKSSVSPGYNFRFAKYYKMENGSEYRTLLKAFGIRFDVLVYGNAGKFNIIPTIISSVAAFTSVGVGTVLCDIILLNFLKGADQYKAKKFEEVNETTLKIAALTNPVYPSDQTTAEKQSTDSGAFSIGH
Procedure: as §1, §2, §3, §4, §5

| Hill (human P2X2 receptors; hP2X2, Hill coefficient of concentration-activation fit) | Effect (Fold in ATP Potency) (human P2X2 receptors; hP2X2, relative to ATP) [fold] | Effect (Fold in ATP Efficacy) (human P2X2 receptors; hP2X2, relative to current at 100 µM ATP) [fold] | Agonist behaviour (current response) (human P2X2 receptors; hP2X2, result in words) | EC50 (human P2X2 receptors; hP2X2, whole-cell, -50 mV, divalent-cation-free bath with 10 mM EGTA, normalised to 100 µM ATP) [nM] | Hill (human P2X2/3 receptors) | Effect (Fold in ATP Efficacy) (human P2X2/3 receptors) [fold] | Agonist behaviour (current response) (human P2X2/3 receptors; hP2X2/3, result in words) | EC50 (human P2X2/3 receptors) [nM] | Elevation of activation level on co-application with ATP (human P2X2 receptors; hP2X2, 10 µM α,βMe-fATP co-applied with 0.1 µM ATP, versus ATP alone) | Effect of ligand alone on current (human P2X2 receptors; hP2X2, α,βMe-fATP alone (10 µM)) | Effect (Fold in ATP Potency) (human P2X2/3 receptors; hP2X2/3, relative to ATP) [fold] | Compound |
| --- | --- | --- | --- | --- | --- | --- | --- | --- | --- | --- | --- | --- |
| 1.4 ± 0.1 | 0.2 | 1.0 | full agonist | 4600 ± 300 | 0.9 ± 0.2 | 0.4 | partial agonist | 700 ± 300 |  |  |  | COCC[N+]1=C(C=CC=C2N(CCCCCC(=O)NCCCCCCSc3nc(N)c4ncn(C5OC(COP(=O)(O)OP(=O)(O)OP(=O)(O)O)C(O)C5O)c4n3)c3ccc(S(=O)(=O)O)cc3C2(C)C)C(C)(C)c2cc(S(=O)(=O)[O-])ccc21 (stereo not drawn) [fATP, 2-[DY-547P1]-AHT-ATP] |
|  |  |  |  |  | 4.4 ± 3.5 | 0.03 |  | 1500 ± 600 | approximately 55% | no discernible effect | 1.8 | COCC[N+]1=C(C=CC=C2N(CCCCCC(=O)NCCCCCCSc3nc(N)c4ncn(C5OC(COP(=O)(O)CP(=O)(O)OP(=O)(O)O)C(O)C5O)c4n3)c3ccc(S(=O)(=O)O)cc3C2(C)C)C(C)(C)c2cc(S(=O)(=O)[O-])ccc21 (stereo not drawn) [α,βMe-fATP, 2-[DY-547P1]-AHT-α,βMe-ATP] |
